# Experiments:
# Mus musculus [1] = experiment: Antidepressant-like activity in Mus musculus albino (mouse) assessed as latency for first immobilization at 100 mg/kg, ip measured after 30 min by forced swim test (reference value: 68 +/- 13 sec); format: functional; settings: route intraperitoneal
# Mus musculus [2] = experiment: Antidepressant-like activity in Mus musculus albino (mouse) assessed as immobility time at 100 mg/kg, ip measured after 30 min by forced swim test (reference value: 167 +/- 17 sec); format: functional; settings: route intraperitoneal
# Mus musculus [3] = experiment: Toxicity in Mus musculus albino (mouse) assessed as resting time at 100 mg/kg, ip; format: organism-based; parameters: dose 100 mg/kg, route intraperitoneal; settings: in vivo
# Mus musculus [4] = experiment: Toxicity in Mus musculus albino (mouse) assessed as increase in horizontal activity at 10 mg/kg, ip; format: organism-based; parameters: dose 10 mg/kg, route intraperitoneal; settings: in vivo
# Mus musculus [5] = experiment: Toxicity in Mus musculus albino (mouse) assessed as increase in total distance travelled at 10 mg/kg, ip; format: organism-based; parameters: dose 10 mg/kg, route intraperitoneal; settings: in vivo
# Mus musculus [6] = experiment: Toxicity in Mus musculus albino (mouse) assessed as resting time at 10 mg/kg, ip; format: organism-based; parameters: dose 10 mg/kg, route intraperitoneal; settings: in vivo
# Mus musculus [7] = experiment: Toxicity in Mus musculus albino (mouse) assessed as increase in total distance travelled at 100 mg/kg, ip; format: organism-based; parameters: dose 100 mg/kg, route intraperitoneal; settings: in vivo
# Mus musculus [8] = experiment: Toxicity in Mus musculus albino (mouse) assessed as increase in horizontal activity at 100 mg/kg, ip; format: organism-based; parameters: dose 100 mg/kg, route intraperitoneal; settings: in vivo
# Mus musculus [9] = experiment: Toxicity in Mus musculus albino (mouse) assessed as decrease in horizontal activity at 100 mg/kg, ip; format: organism-based; parameters: dose 100 mg/kg, route intraperitoneal; settings: in vivo
# Mus musculus [10] = experiment: Toxicity in Mus musculus albino (mouse) assessed as decrease in total distance travelled at 100 mg/kg, ip; format: organism-based; parameters: dose 100 mg/kg, route intraperitoneal; settings: in vivo
structure (smiles),measurement,setting,value
COc1ccc(C2CC(c3cccs3)=NN2C(=O)CSC(=S)N2CCOCC2)cc1 (stereo not drawn),Time,Mus musculus [1],94 s
same,Time,Mus musculus [2],139 s
same,Activity,Mus musculus [3],84%
CN(C)CCCN1c2ccccc2CCc2ccc(Cl)cc21 [CLOMIPRAMINE],Activity,Mus musculus [4],Toxic
same,Activity,Mus musculus [5],Toxic
same,Activity,Mus musculus [6],73%
COc1ccc(C2CC(c3cccs3)=NN2C(=O)CSC(=S)N2CCSCC2)cc1 (stereo not drawn),Activity,Mus musculus [7],Toxic
same,Time,Mus musculus [1],80 s
same,Time,Mus musculus [2],134 s
same,Activity,Mus musculus [3],72%
same,Activity,Mus musculus [8],Toxic
O=C(CSC(=S)N1CCOCC1)N1N=C(c2cccs2)CC1c1ccccc1 (stereo not drawn),Activity,Mus musculus [7],Toxic
same,Time,Mus musculus [1],73 s
same,Time,Mus musculus [2],148 s
same,Activity,Mus musculus [3],77%
same,Activity,Mus musculus [8],Toxic
O=C(CSC(=S)N1CCSCC1)N1N=C(c2cccs2)CC1c1ccc(Cl)cc1 (stereo not drawn),Activity,Mus musculus [9],Toxic
same,Time,Mus musculus [1],77 s
same,Time,Mus musculus [2],136 s
same,Activity,Mus musculus [3],80%
same,Activity,Mus musculus [10],Toxic
N[C@@H]1C[C@H]1c1ccccc1.N[C@H]1C[C@@H]1c1ccccc1 (racemic) [TRANYLCYPROMINE],Activity,Mus musculus [6],89%
Cc1ccc(C2CC(c3cccs3)=NN2C(=O)CSC(=S)N2CCOCC2)cc1 (stereo not drawn),Activity,Mus musculus [9],Toxic
same,Time,Mus musculus [1],99 s
same,Time,Mus musculus [2],129 s
same,Activity,Mus musculus [3],89%
same,Activity,Mus musculus [10],Toxic
O=C(CSC(=S)N1CCSCC1)N1N=C(c2cccs2)CC1c1ccccc1 (stereo not drawn),Activity,Mus musculus [7],Toxic
same,Time,Mus musculus [1],72 s
same,Time,Mus musculus [2],84 s
same,Activity,Mus musculus [3],73%
same,Activity,Mus musculus [8],Toxic
O=C(CSC(=S)N1CCOCC1)N1N=C(c2cccs2)CC1c1ccc(Cl)cc1 (stereo not drawn),Time,Mus musculus [1],36 s
same,Time,Mus musculus [2],112 s
same,Activity,Mus musculus [3],80%
Cc1ccc(C2CC(c3cccs3)=NN2C(=O)CSC(=S)N2CCSCC2)cc1 (stereo not drawn),Time,Mus musculus [1],60 s
same,Time,Mus musculus [2],113 s
same,Activity,Mus musculus [3],81%

# Source: ChEMBL document CHEMBL3046136, “Evaluation of antidepressant-like effect of 2-pyrazoline derivatives” (Med Chem Res, 2010)
